Test results published in US7939621B2, “Oligocarbonate molecular transporters” (International Business Machines Corporation, priority 2009, dated 2011).

What was measured:
[1] = test system: Jurkat cells; assay: Cellular uptake assay by flow cytometry; format: cell-based; settings: 5, 12.5, 25 μM, pH 7.2 PBS, 5 min, 23° C.
Method: Dansyl-tagged oligomers and octaarginine control were brought up in pH 7.2 PBS buffer at 5 μM, 12.5 μM, and 25 μM concentrations. […] Cells were plated on a microtiter plate at 3.0×10^6 cells/mL with 200 μL/well. The plate was centrifuged (1300 rpm for 3 min), media removed, and cells resuspended in PBS buffer twice.
Compounds 6(a-c) and the r8 control at varying concentrations were incubated with the cells for 5 minutes at 23° C. The microtiter plates were centrifuged and the cells were isolated, washed with PBS and resuspended in PBS containing propidium iodide (3 μg/mL, 0.01%). The cells were analyzed using a fluorescent flow cytometer (Vantoo, Stanford University) equipped with a UV laser for excitation of the dansyl fluorophore, and cells stained with propidium iodide were excluded from the analysis. The data presented are the mean fluorescent signals for the 20,000 cells analyzed.

[2] = test system: Jurkat cells; assay: MTT toxicity assay; format: cell-based; settings: Homo sapiens, 24 h with compound at 37° C., then 24 h fresh media
Method: Jurkat cells grown in 10% FBS in RPMI media 1640 (+ glutamine) were plated at 5-10×10^4 cells/mL on a 96-well microtiter plate in the same media. In a second 96-well plate, compound was serially diluted in triplicate over 20 wells in columns 2-11 and rows 1-3 and 5-7; typical dilutions spanned the concentration range of 400 μM to 20 nM. Columns 1 and 12 contained no cells and no compound, respectively. Rows 4 and 8 contained a serial dilution of colchicine as internal control; colchicine concentrations were generally much lower than compound concentrations in order to obtain an EC50 (half-maximal effective concentration).
Compounds were added to the plate containing cells and the cells were incubated at 37° C. for 24 h, at which point the plate was centrifuged, compound removed, and the cells resuspended in fresh media. […] Cells were incubated with MTT for 3 hours at 37° C., 150 μL solubilizing solution (10% triton X-100, 90% 0.1N HCl in isopropanol) was added to each well, and colorimetry data obtained on a plate reader.
Numerical data from plate reader was standardized using values from columns 1 and 12 and curve fitting was performed using Graph Pad Prism software to obtain an EC50 for each compound.

CN(C)c1cccc2c(S(=O)(=O)NCCO)cccc12 [Compound 4, 5-(dimethylamino)-N-(2-hydroxyethyl)naphthalene-1-sulfonamide, reference compound]
Cellular uptake into Jurkat cells [1]: does not enter Jurkat cells | EC50 [2]: 311 µM
